What was measured:
human DP1 receptor = target: T1, human DP1 receptor (Homo sapiens, UniProt Q13258); experiment: DP1 radioligand binding assay ([3H]BWA868C, platelet membranes); conditions: [3H]BWA868C binding, human platelet membranes; read-out: hDP1
T1 construct: tissue Biological Specialty Corporation; host or cells: human platelet membranes
T1 sequence (Q13258 1-359): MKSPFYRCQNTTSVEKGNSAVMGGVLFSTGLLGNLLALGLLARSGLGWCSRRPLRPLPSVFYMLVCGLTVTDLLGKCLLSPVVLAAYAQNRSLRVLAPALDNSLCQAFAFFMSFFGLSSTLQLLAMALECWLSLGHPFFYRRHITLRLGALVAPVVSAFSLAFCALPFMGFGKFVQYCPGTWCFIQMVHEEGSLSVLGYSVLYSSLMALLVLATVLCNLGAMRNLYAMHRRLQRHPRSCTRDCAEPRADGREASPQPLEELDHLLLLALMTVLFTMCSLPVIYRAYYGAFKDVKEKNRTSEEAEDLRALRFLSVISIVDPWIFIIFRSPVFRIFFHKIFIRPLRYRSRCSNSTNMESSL
In short: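 Human platelet membranes (20 μg protein/well) incubated 60 min at room temperature with 2 nM [3H]BWA868C and compound in 50 mM Hepes, 10 mM MnCl2, 1 mM EDTA, pH 7.4, ± 0.2% human serum albumin. Bound radioactivity measured after filtration; nonspecific binding defined with 10 μM BWA868C; IC50 from titration curves.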

[1] = target: T2, recombinant human CRTH2 receptor (Homo sapiens, UniProt Q9Y5Y4); experiment: GTPγS binding assay; type: biochemical; conditions: +HSA (0.2% human serum albumin), 80 nM PGD2, CHO cell membranes; read-out: hDP2 GTPγS μM (+HSA)
T2 construct: expressed in transfected cells
T2 sequence (Q9Y5Y4 1-395): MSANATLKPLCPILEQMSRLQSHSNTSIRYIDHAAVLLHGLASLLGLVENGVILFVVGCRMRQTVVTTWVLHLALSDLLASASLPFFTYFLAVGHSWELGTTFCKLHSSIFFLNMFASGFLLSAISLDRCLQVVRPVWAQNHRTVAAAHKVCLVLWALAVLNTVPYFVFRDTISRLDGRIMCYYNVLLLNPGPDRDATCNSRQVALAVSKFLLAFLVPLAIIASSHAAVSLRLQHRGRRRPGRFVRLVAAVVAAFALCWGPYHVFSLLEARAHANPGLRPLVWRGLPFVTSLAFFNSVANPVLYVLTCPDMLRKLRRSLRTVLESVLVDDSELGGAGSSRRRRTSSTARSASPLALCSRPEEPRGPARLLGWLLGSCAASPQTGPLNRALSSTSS
Procedure: The ability of a compound to inhibit binding of GTP to DP2 is assessed via a membrane GTPγS assay. CHO cells stably expressing the recombinant human CRTH2 receptor are resuspended in 10 mM Hepes, 7.4 containing 1 mM DTT, lysed and centrifuged at 75,000×g to pellet the membranes. The membranes are resuspended in 10 mM Hepes, 7.4 containing 1 mM DTT and 10% glycerol. […] The reactions are terminated by rapid filtration through Whatman GF/B glass fibre filter plates. The filter plates are washed 3 times with 1 ml cold Assay Buffer and dried. Scintillant is then added to the plates and the radioactivity retained on the filters is determined on a Packard TopCount (Perkin Elmer). Specific binding is determined as total radioactive binding minus non-specific binding in the absence of the ligand (80 nM PGD2). IC50s were determined using Graphpad prism analysis of drug titration curves.

human DP2 receptor = target: T3, human DP2 receptor (Homo sapiens, UniProt Q9Y5Y4); experiment: DP2/CRTH2 radioligand binding assay ([3H]PGD2); conditions: [3H]PGD2 binding, membranes of HEK293 cells expressing human DP2; read-out: hDP2
T3 construct: expressed in transfected cells
T3 sequence (Q9Y5Y4 1-395): T2 sequence (Q9Y5Y4 1-395)
In short: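 Membranes from HEK293 cells stably expressing recombinant human DP2 incubated 60 min at room temperature with 1 nM [3H]PGD2 and compound in pH 7.4 Hepes/MnCl2/EDTA buffer, ± 0.2% human serum albumin. Bound radioactivity measured after filtration; non-specific binding defined with 10 μM PGD2. IC50 from titration curves.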

Row | IC50 (human DP1 receptor) [µM] | IC50 [1] [µM] | IC50 (human DP2 receptor) [µM] | SMILES
1 | 1 to 30 | 0.3 to 1 | 0.3 to 1 | COc1ccc(CC(=O)O)cc1-c1ccc(C(F)(F)F)cc1CN(CC(N)=O)C(C)=O [Compound 1-9, {2′-[(Acetyl-carbamoylmethyl-amino)-methyl]-6-methoxy-4′-trifluoromethyl-biphenyl-3-yl}-acetic acid]
2 | 1 to 30 | 0.3 to 1 | < 0.3 | COc1ccc(CC(=O)O)cc1-c1ccc(C(F)(F)F)cc1CN(CCO)C(C)=O [Compound 1-5, (2′-{[Acetyl-(2-hydroxy-ethyl)-amino]-methyl}-6-methoxy-4′-trifluoromethyl-biphenyl-3-yl)-acetic acid]
3 | – | < 0.3 | < 0.3 | CCN(Cc1cc(-c2cnn(C)c2)ccc1-c1cc(CC(=O)O)ccc1OC)C(=O)NCc1ccccc1 [Compound 1-234, [2′-(3-Benzyl-1-ethyl-ureidomethyl)-6-methoxy-4′-(1-methyl-1H-pyrazol-4-yl)-biphenyl-3-yl]-acetic acid]
4 | 1 to 30 | < 0.3 | < 0.3 | CCN(Cc1cc(C(F)(F)F)ccc1-c1cc(CC(=O)O)ccc1OC)C(=O)C1(c2ccc(Cl)cc2Cl)CC1 [Compound 1-131, [2′-({[1-(2,4-Dichloro-phenyl)-cyclopropanecarbonyl]-ethyl-amino}-methyl)-6-methoxy-4′-trifluoromethyl-biphenyl-3-yl]-acetic acid]
5 | 1 to 30 | 0.3 to 1 | 0.3 to 1 | COc1ccc(CC(=O)O)cc1-c1ccc(C(F)(F)F)cc1CN(CCN(C)C)C(C)=O [Compound 1-7, (2′-{[Acetyl-(2-dimethylamino-ethyl)-amino]-methyl}-6-methoxy-4′-trifluoromethyl-biphenyl-3-yl)-acetic acid]
6 | 1 to 30 | < 0.3 | < 0.3 | COc1ccc(CC(=O)O)cc1-c1ccc(C(F)(F)F)cc1CN(C(C)=O)C1Cc2ccccc2C1 [Compound 1-17, {2′-[(Acetyl-indan-2-yl-amino)-methyl]-6-methoxy-4′-trifluoromethyl-biphenyl-3-yl}-acetic acid]
7 | – | < 0.3 | < 0.3 | CCOc1ccc(-c2ccc(-c3cc(CC(=O)O)ccc3OC)c(CN(CC)C(=O)NCc3ccccc3)c2)cn1 [Compound 1-228, [2′-(3-Benzyl-1-ethyl-ureidomethyl)-4′-(6-ethoxy-pyridin-3-yl)-6-methoxy-biphenyl-3-yl]-acetic acid]
8 | 1 to 30 | < 0.3 | < 0.3 | CCN(Cc1cc(C(F)(F)F)ccc1-c1cc(CC(=O)O)ccc1OC)/C(=N/C#N)NCc1ccccc1 [Compound 1-111, [2′-(N′-Benzyl-N″-cyano-N-ethyl-guanidinomethyl)-6-methoxy-4′-trifluoromethyl-biphenyl-3-yl]-acetic acid]
9 | 1 to 30 | < 0.3 | < 0.3 | COC(=O)N(Cc1cc(C(F)(F)F)ccc1-c1cc(CC(=O)O)ccc1OC)C1Cc2ccccc2C1 [Compound 1-26, {2′-[(Indan-2-yl-methoxycarbonyl-amino)-methyl]-6-methoxy-4′-trifluoromethyl-biphenyl-3-yl}-acetic acid]
10 | 1 to 30 | < 0.3 | < 0.3 | COCCN(Cc1cc(C(F)(F)F)ccc1-c1cc(CC(=O)O)ccc1OC)C(C)=O [Compound 1-6, (2′-{[Acetyl-(2-methoxy-ethyl)-amino]-methyl}-6-methoxy-4′-trifluoromethyl-biphenyl-3-yl)-acetic acid]
11 | 1 to 30 | < 0.3 | < 0.3 | COC(=O)N(CCc1ccccc1)Cc1cc(C(F)(F)F)ccc1-c1cc(CC(=O)O)ccc1OC [Compound 1-25, {6-Methoxy-2′-[(methoxycarbonyl-phenethyl-amino)-methyl]-4′-trifluoromethyl-biphenyl-3-yl}-acetic acid]
12 | 1 to 30 | < 0.3 | < 0.3 | COc1ccc(CC(=O)O)cc1-c1ccc(C(F)(F)F)cc1CN(CCc1ccccc1)C(C)=O [Compound 1-20, {2′-[(Acetyl-phenethyl-amino)-methyl]-6-methoxy-4′-trifluoromethyl-biphenyl-3-yl}-acetic acid]
13 | 0.3 to 1 | < 0.3 | < 0.3 | CCN(Cc1cc(C(F)(F)F)ccc1-c1cc(F)cc(CC(=O)O)c1)C(=O)OCc1ccccc1 [Compound 1-126, {2′-[(Benzyloxycarbonyl-ethyl-amino)-methyl]-5-fluoro-4′-trifluoromethyl-biphenyl-3-yl}-acetic acid]
14 | 1 to 30 | 1 to 30 | 1 to 30 | COc1ccc(CC(=O)O)cc1-c1ccc(C(F)(F)F)cc1CN(CC(=O)O)C(C)=O [Compound 1-8, {2′-[(Acetyl-carboxymethyl-amino)-methyl]-6-methoxy-4′-trifluoromethyl-biphenyl-3-yl}-acetic acid]
15 | 1 to 30 | < 0.3 | < 0.3 | CCOc1ccc(-c2ccc(-c3cc(CC(=O)O)ccc3OC)c(CN(CC)C(=O)C3CC3)c2)cn1 [Compound 1-227, [2′-[(Cyclopropanecarbonyl-ethyl-amino)-methyl]-4′-(6-ethoxy-pyridin-3-yl)-6-methoxy-biphenyl-3-yl]-acetic acid]
16 | 1 to 30 | < 0.3 | < 0.3 | CCN(Cc1cc(C(F)(F)F)ccc1-c1cc(CC(=O)O)ccc1OC)C(=O)CS(=O)(=O)c1ccccc1 [Compound 1-120, (2′-{[(2-Benzenesulfonyl-acetyl)-ethyl-amino]-methyl}-6-methoxy-4′-trifluoromethyl-biphenyl-3-yl)-acetic acid]
17 | 1 to 30 | 0.3 to 1 | < 0.3 | CCN(Cc1cc(C(F)(F)F)ccc1-c1cc(CC(=O)O)ccc1OC)C(=O)NC#N [Compound 1-99, [2′-(3-Cyano-1-ethyl-ureidomethyl)-6-methoxy-4′-trifluoromethyl-biphenyl-3-yl]-acetic acid]
18 | 1 to 30 | < 0.3 | < 0.3 | CCN(Cc1cc(C(F)(F)F)ccc1-c1cc(CC(=O)O)ccc1OC)C(=O)CSc1ccccc1 [Compound 1-117, (2′-{[Ethyl-(2-phenylsulfanyl-acetyl)-amino]-methyl}-6-methoxy-4′-trifluoromethyl-biphenyl-3-yl)-acetic acid]
19 | – | < 0.3 | < 0.3 | CCN(Cc1cc(C(F)(F)F)ccc1-c1cc([C@@H](C)C(=O)O)cc(C(F)(F)F)c1)C(=O)C1CC1 [Compound 1-237, (R)-2-{2′-[(Cyclopropanecarbonyl-ethyl-amino)-methyl]-5,4′-bis-trifluoromethyl-biphenyl-3-yl}-propionic acid]
20 | – | < 0.3 | < 0.3 | CCN(Cc1cc(-c2cnn(C)c2)ccc1-c1cc(CC(=O)O)ccc1OC)C(=O)C1CC1 [Compound 1-233, [2′-[(Cyclopropanecarbonyl-ethyl-amino)-methyl]-6-methoxy-4′-(1-methyl-1H-pyrazol-4-yl)-biphenyl-3-yl]-acetic acid]
21 | – | < 0.3 | < 0.3 | CCN(Cc1cc(C(F)(F)F)ccc1-c1cc(C(C)C(=O)O)ccc1OC)C(=O)NCc1ccccc1 (stereo not drawn) [Compound 1-222, 2-[2′-(3-Benzyl-1-ethyl-ureidomethyl)-6-methoxy-4′-trifluoromethyl-biphenyl-3-yl]-propionic acid]
22 | – | < 0.3 | < 0.3 | CCN(Cc1cc(C(F)(F)F)ccc1-c1cc([C@@H](C)C(=O)O)ccc1OC)C(=O)C1CC1 [Compound 1-224, (R)-2-{2′-[(Cyclopropanecarbonyl-ethyl-amino)-methyl]-6-methoxy-4′-trifluoromethyl-biphenyl-3-yl}-propionic acid]
